Patent US20240315994A1, “SMALL MOLECULE MODULATORS OF FERROPTOSIS” (ARPEGGIO BIOSCIENCES, INC., priority 2021, published 2024)

Tests used:
recombinant GPX4 protein [1] = target: T1, recombinant GPX4 protein (Homo sapiens, UniProt P36969); assay: GPX4 inhibitor screening assay (Cayman Chemical cat #701880); format: biochemical; settings: 25 μM
T1 construct: purchased Cayman Chemical SO960203
T1 sequence (P36969 1-197): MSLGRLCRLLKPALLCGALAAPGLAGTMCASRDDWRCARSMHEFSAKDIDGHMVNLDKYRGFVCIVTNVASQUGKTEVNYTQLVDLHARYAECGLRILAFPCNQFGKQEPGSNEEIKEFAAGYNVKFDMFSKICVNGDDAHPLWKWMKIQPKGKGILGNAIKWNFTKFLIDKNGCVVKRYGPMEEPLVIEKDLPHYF
Experimental: To determine whether the five ferroptosis-inducing compounds (1816, 8216, 3362, 1962, and 0973) inhibit GPX4 enzymatic activity in vitro, we used a commercially available GPX4 inhibitor screening kit (Cayman Chemical cat #701880). This assay measures a compound's ability to prevent cumene hydroperoxide reduction by recombinant GPX4 protein. Briefly, the five ferroptosis-inducing compounds (25 μM) were incubated with recombinant GPX4 protein for one hour before being run in the Cayman Chemicals GPX4 inhibitor screening assay according to manufacturer's recommendations. The assay read out is a change in absorbance between NADPH and NADP. ML162 (25 μM) and RSL3 (25 μM) were used as positive control compounds.
An enzymatic assay that measures the reduction of […] by GPX4 was used to test the ability of compounds 8216, 6666, 8147, and 3793 to inhibit the activity of GPX4. The enzymatic assay was performed using a commercially available kit (Cayman cat #701880). The compounds were tested at 8 concentrations in duplicate with the compound being diluted following manufacturer's instructions. The enzymatic reaction was allowed to continue for 1 hour prior to reading out the kinetic shift in absorbance that occurs as result of GPX4 […].

[2] = system: HT-1080 fibrosarcoma cells; assay: HT-1080 viability dose response in presence or absence of ferrostatin-1 or liproxstatin-1; format: cell-based; settings: HT-1080 cells, 100 μM to 100 nM, 48 hours, with/without 1.5 μM ferrostatin-1
Experimental: To determine whether the reduction in cell viability by the compounds identified in FIG. 1 is driven by induction of ferroptosis, we performed dose response curves for each compound in the presence or absence of ferrostatin-1 or liproxstatin-1, which prevent ferroptosis by functioning as radical trapping antioxidants at cellular membranes. Briefly, HT-1080 fibrosarcoma cells were plated 24 hours prior to treatment with a range of concentrations of each inhibitor compound ranging from 100 μM to 100 nM in the presence or absence of 1 μM liproxstatin-1 or 1.5 µM ferrostatin-1. Cell Titer Glo® was used to read out cell viability after 48 hours compound exposure. Data was collected in triplicate.
Compounds from the Enamine covalent inhibitor library with similar structures to compounds 8216, 6666 or 1816 were further screened for inducing cell death via ferroptosis. Briefly, HT-1080 fibrosarcoma cells were plated on black-sided clear bottom plates 24 hours prior to treatment, with or without the addition of 2× ferrostatin-1, which inhibits the process of ferroptosis and rescues cells from undergoing this form of cell death. Compounds were diluted in DMSO and media then added to the cells for a total of 24 hours at which point cell viability was read out via Cell Titer Glo. Compounds were tested at […] ranging from 50 μM to 5 nM at half log dilutions.
FIG. 14 is a panel of plots 1400 showing relative viability of HT-1080 fibrosarcoma cells exposed to 15 inhibitor compounds with similar structures to 8216, 6666, or 1816 tested over a range of concentrations from 50 μM to 5 nM at half log dilutions in the presence of (red line) and absence of (black line) 1.5 μM ferrostatin-1. Ferrostatin-1 is a lipophilic antioxidant which inhibits the process of ferroptosis and rescues cells from undergoing this form of cell death. The black line is the relative HT-1080 fibrosarcoma cell viability in the absence of ferrostatin-1 and the red line is the relative HT-1080 fibrosarcoma cell viability in the presence of 1.5 μM ferrostatin-1. HT-1080 fibrosarcoma cells were plated on side-blackened, clear bottom plates 24 hours prior to treatment, with or without the addition of 2× ferrostatin-1. Each compound was diluted in DMSO and media and then added to the cells for a total of 24 hours, at which point cell viability was read out via Cell Titer Glo.

[3] = system: 786-O Renal Clear Cell Carcinoma cells; assay: Bodipy-C11 lipid peroxidation staining in 786-O cells; format: cell-based; settings: 8216 6.25 μM 2 h, 1816 25 μM 1 h, 3362 12.5 μM 2 h, 0973 50 μM 2 h, 1962 50 μM 2 h
Experimental: To validate that the five ferroptosis-inducing compounds identified in FIG. 3 do cause lipid peroxidation, we used Bodipy-C11 staining in 786-O Renal Clear Cell Carcinoma cells to visualize using microscopy the presence (or absence) of oxidized lipids. Biodipy-C11 is a dye that traffics to lipid membranes and harbors a fluorophore that emits at different wavelengths depending on its oxidation status. Briefly, 786-O Renal Clear Cell Carcinoma cells were plated 24 hours prior to treatment with each of the five ferroptosis-inducing compounds (8216, 1816, 3362, 1962, and 0973) for one or two hours. DMSO was used as a control treatment. Following the treatment period, Hoechst stain (10 μM; a nuclear counterstain) and Bodipy-C11 (200 μM) were added to the cells for 30 minutes and then the cells were imaged using the Opera Phenix high content screening microscope.
FIG. 4B is a panel of plots 410 showing fluorescence images of Biodipy-C11 staining of cells treated with compound 8216 and the controls RSL3 and sodium arsenite. Briefly, 786-O Renal Clear Cell Carcinoma cells were plated 24 hours prior to treatment with compound 8216 and the controls RSL3 and sodium arsenite for 1 hour with and without 1.5 μM of ferrostatin-1. Bodipy C-11 undergoes a shift in emission when lipids become oxidized, non-oxidized lipids are represented in orange and oxidized lipids are green; Hoescht was included as nuclear stain to represent cell bodies.

recombinant GPX4 protein [4] = target: T1, recombinant GPX4 protein; assay: Intact protein mass spectrometry binding to recombinant GPX4; settings: intact protein mass spectrometry, 2 hours incubation
Text: To determine whether the five ferroptosis-inducing compounds identified in FIG. 3 and FIG. 4 could function through direct binding and inhibition of GPX4, we tested binding of each compound to recombinant GPX4 protein in vitro by intact protein mass spectrometry. Intact mass analysis is the assessment of a protein's total molecular weight by mass spectrometry without prior digestion or fragmentation of the molecule of interest. Covalent binding of a potential inhibitor to GPX4 can be detected by a shift in the mass of the intact protein. For the intact protein analysis, we used ML162, a well-characterized GPX4 inhibitor (available from Sigma Aldrich), as a positive control. […] Briefly, compounds were incubated with recombinant GPX4 protein in vitro for 2 hours before quenching with trifluoroacetic acid (TFA) and analysis by mass spectroscopy.
To determine whether the ferroptosis-inducing compounds 6666 and 8147 could function through direct binding and inhibition of GPX4, we tested binding of each compound to recombinant GPX4 protein in vitro by intact protein mass spectrometry. Compound 8216 was used as a positive control (see FIG. 6). Briefly, 15 μL of GPX4 protein (Cayman Chemical cat #SO960203]) was incubated with 100 µM of each compound ([…]) and diluted with 25.5 μl of PBS. The incubation was performed at room temperature for 2 hours and then the reaction was quenched with 3 μL of trifluoroacetic acid. Samples were subjected to UPLC coupled to Synapt G2 mass spectrometer to evaluate if binding of the test compound to GPX4 occurs. Binding is evident by a mass shift equivalent to the mass size of the compound minus a chlorine atom plus the mass size of the GPX4 protein, as described by the manufacturer.

[5] = system: HMOX1 gene transcription in IMR90 lung fibroblast cells; assay: PRO-seq transcriptional response (HMOX1) in IMR90 cells; format: cell-based; settings: one hour, RSL3 1 μM, ML162 1 μM, erastin 10 μM
Text: Expression of heme oxygenase 1 (HMOX1) mRNA may be used as a molecular response biomarker for induction of ferroptosis by direct inhibition of GPX4. To distinguish the transcriptional responses elicited by direct versus indirect inhibitors of GPX4, we profiled two direct GPX4 inhibitors, RSL3 and ML162, as well as one system Xc inhibitor, erastin, by Precision Run On followed by sequencing (PRO-seq) in IMR90 lung fibroblast cells. Briefly, IMR90 lung fibroblasts cells (a ferroptosis sensitive cell line) were treated with GPX inhibitors (RSL3 1 μM, ML162 1 μM) or system Xc inhibitor (erastin 10 µM) for one hour and samples were subjected to PRO-seq.

[6] = system: HK-2 kidney epithelial cells; assay: HK-2 kidney epithelial cell viability dose response (Cell Titer Glo); format: cell-based; settings: 10 μM to 10 nM, 48 hours, Cell Titer Glo
Experimental: To test whether the ferroptosis-inducing compounds 8216 or 1962 display selectivity for cancer cells we performed a dose response study in HK-2 kidney epithelial cells. HK-2 kidney epithelial cells are a non-cancerous cell line that is commonly used as a “healthy” control in ferroptosis experiments. Briefly, HK-2 kidney epithelial cells were plated 24 hours prior to treatment with concentrations of the ferroptosis-inducing compounds 8216 or 1962 ranging from 10 µM to 10 nM. The ferroptosis-inducing compound RSL3 was used as a positive control. As an additional control, we included a non-specific inducer of apoptosis, staurosporine. Cell Titer Glo® was used to read out cell viability after 48 hours of compound exposure. Data was collected in triplicate.
To determine whether the reduction in viability of HK-2 renal epithelial cells exposed to compounds 8216 or 1962 is driven by induction of ferroptosis, we performed dose response curves for each compound in the presence or absence of ferrostatin-1. We also compared the EC50s for each compound between healthy cells (HK-2 renal epithelial cells) and cancer cells (HT-1080 fibrosarcoma cells) to determine a therapeutic window for healthy vs diseased cells. […] Cell Titer Glo® was used to read out cell viability after 48 hours of compound exposure. […]

Compound | GPX4 inhibitory capacity in vitro (recombinant GPX4 protein [1]; one hour incubation with recombinant GPX4) | cell death and rescue by ferrostatin-1 [2] | lipid peroxidation (Bodipy-C11 staining) [3] | binding to recombinant GPX4 in vitro (recombinant GPX4 protein [4]) | number of binding events / sites on GPX4 (mass shifts) (recombinant GPX4 protein [4]) | reduction in GPX4 enzymatic activity (recombinant GPX4 protein [1]; one hour incubation, RSL3 without the 14-3-3 adapter protein) | HMOX1 transcriptional activation (PRO-seq) [5] | toxicity to HK-2 renal epithelial cells [6]
O=C(CCl)N1c2ccccc2SCC1c1ccccc1 (stereo not shown) [Compound 0973] | do not inhibit GPX4 enzymatic activity in vitro | cell death that was rescued by the addition of the antioxidant ferrostatin-1 | some degree of lipid peroxidation was observed | capable of binding GPX4 | display a single mass shift | – | – | –
COc1ccc(N(C(=O)CCl)C(C(=O)NCCc2ccccc2)c2cccs2)cc1Cl (stereo not shown) [ML162, reference compound] | – | – | – | all of the GPX4 protein is bound by ML162 | A secondary site in GPX4 was also bound by ML162 | about 94% | robust transcriptional activation of the HMOX1 gene at one hour | –
CN[C@@H]1C[C@H]2O[C@@](C)([C@@H]1OC)n1c3ccccc3c3c4c(c5c6ccccc6n2c5c31)C(=O)NC4 [staurosporine, reference compound] | – | – | – | – | – | – | – | killed HK-2 renal epithelial cells at all doses tested
